Assay results as given in PMC2410110, “Differential effects of ketoconazole on exposure to temsirolimus following intravenous infusion of temsirolimus” (British Journal of Cancer, 2008).
Where “and” joins values, the source holds several entries; their conditions need not be identical. Equal values may be shown once. Entries after “also recorded” stand apart in the source; their conditions may differ. Read-outs that look alike come from different tables or passages of the source. One block for each compound: values may come before it.

Columns and labels:
[1] = tested on: CYP3A4; design: method as in Cai et al, 2007; settings: in vitro liver microsome systems, ref Cai et al, 2007, cited from earlier work
[2] = tested on: CYP3A4; settings: read-out: Ki for inhibition of the metabolism of sirolimus; reference not given; cited from earlier work
[3] = design: method as in Boni et al, 2007; settings: healthy adults; with rifampin; ref Boni et al, 2007; cited from earlier work
[4] = design: method as in Punt et al, 2003; settings: stored at −70°C; ref Punt et al, 2003; cited from earlier work
[5] = Drug interaction study: whole blood pharmacokinetics of temsirolimus and sirolimus after single 5-mg i.v. temsirolimus alone or with oral ketoconazole; type: in vivo, human; settings: for Intersubject variability, CV for Cmax and AUC: both treatment periods; for Cmax / AUC / AUC(0-t) / Vd / half-life / Tmax / clearance: human; for Cmax / AUC / AUC(0-t) / Vd / half-life / Tmax / T1/2 / clearance / CL / Vss: whole blood
Method: (§1) In this open-label, non-randomised, single-centre, two-period, sequential study, subjects received temsirolimus (Torisel™; Wyeth Pharmaceuticals, Philadelphia, PA, USA) alone, followed by temsirolimus in combination with ketoconazole after a 14-day washout period. On study day 1 of the first period, subjects received 25 mg i.v. diphenhydramine, followed 30 min later by 5 mg i.v. temsirolimus over 30 min. Subjects remained in the clinical unit until the 72-h blood collection (study day 4) and returned for subsequent blood draws at designated time points over the next 4 days (study days 5–8). Study days 9 through 13 were part of the washout period. During the second period, subjects returned to the clinical unit on study day 14. On study day 15, they received 400 mg oral ketoconazole, followed 90 min later by a 25-mg i.v. dose of diphenhydramine. Thirty minutes later, subjects were administered a 30-min i.v. infusion of 5 mg temsirolimus. Subjects remained in the clinical unit until the 72-h blood draw (study day 18) and returned for all subsequent blood draws. They continued to take 400 mg ketoconazole orally each day through study day 21. Subjects fasted for 10 h before receiving temsirolimus and for 4 h afterward.
Blood samples were collected predose, immediately before the end of the infusion (0.5 h), and at 1, 3, 8, 24, 48, 72, 96, 120, 144, and 168 h after administration of temsirolimus on study days 1 and 15. Samples were collected in evacuated tubes containing ethylenediaminetetraacetic acid (EDTA) and gently mixed, then stored upright at −70°C until shipment.
Analytes and internal standard were extracted from a 1-ml sample of EDTA-treated whole blood by liquid–liquid extraction with 1-chlorobutane and separated with a YMC PDS AQ HPLC column (Waters, Milford, MA, USA). Analytes were detected by tandem mass spectrometry using atmospheric pressure chemical ionisation. The concentration of analytes was determined with calibration standards using linear least squares regression.
Pharmacokinetic parameters for temsirolimus were analysed for each subject for each study period using non-compartmental methods ([Jusko, 1992]). Scheduled times were used for all calculations. The Cmax and the time to reach Cmax (Tmax) were determined visually from the concentration–time curves. The terminal elimination rate constant, λz, was estimated by log-linear regression of the terminal portion of the whole blood concentration–time curves. The terminal elimination half-life (T1/2) was calculated as 0.693/λz. The area under the concentration–time curve (AUCT) was calculated using the trapezoidal rule for the ascending portion of the curve, and the log-trapezoidal rule for the descending portion of the curve. […] Clearance (CL) is the volume of plasma cleared of the drug per unit time (dose/AUC). Apparent clearance was corrected for the fraction of the dose that was metabolised (CL/fm). The apparent volume of distribution during the terminal phase (Vz) was calculated by (CL/fm)/λz. The calculation of the steady-state volume of distribution (Vdss) incorporated dissociation and association rates of protein and tissue binding. Vdss was defined as (dose/AUC)MRTu, where MRTu is the mean residence time of the unbound drug in the plasma ([Berezhkovskiy, 2004]).
(§2) The geometric mean relative bioavailability of Cmax, AUC, and AUCT and the 90% confidence limits were calculated using ANOVA to determine the magnitude of the effect of ketoconazole. Vital signs, ECG intervals, and laboratory parameters were screened for prespecified, potentially clinically important criteria.

[6] = design: method as in Boni et al, 2007; settings: cancer patients; ref Boni et al, 2007; cited from earlier work
[7] = design: method as in Atkins et al, 2004; settings: ref Atkins et al, 2004, cited from earlier work
[8] = design: method as in Zimmerman, 2004; settings: oral sirolimus; ref Zimmerman, 2004; cited from earlier work
[9] = Safety: treatment-emergent adverse events in healthy subjects receiving temsirolimus alone or with ketoconazole; type: in vivo, human
Method: as §1, §2

[10] = 5 mg i.v. temsirolimus + 400 mg oral ketoconazole vs temsirolimus alone
[11] = 5 mg i.v. temsirolimus + ketoconazole vs temsirolimus alone
[12] = intravenous, single 5 mg i.v. temsirolimus + ketoconazole 400 mg oral, healthy subjects, mean (CV)
[13] = intravenous, single 5 mg i.v. temsirolimus + ketoconazole 400 mg oral, mean (CV)
[14] = iv, single 5 mg i.v. temsirolimus alone, healthy subjects, mean (CV)
[15] = iv, single 5 mg i.v. temsirolimus alone, mean (CV)
[16] = iv, 5 mg, 5 mg i.v. temsirolimus, irrespective of treatment (with or without ketoconazole), read-out: Time to maximal concentration
[17] = iv, 5 mg, single 5 mg i.v. temsirolimus alone, mean (CV)
[18] = iv, 5 mg, single 5 mg i.v. temsirolimus alone, mean (CV), read-out: Tmax
[19] = single 5 mg i.v. temsirolimus + ketoconazole 400 mg oral, mean (CV)
[20] = single 5 mg i.v. temsirolimus alone, mean (CV)
[21] = with ketoconazole relative to single 5-mg i.v. temsirolimus alone, 90% CI in brackets
[22] = single 25-mg dose of temsirolimus, patients with RCC, CV=17%

Increase in mean AUC with ketoconazole compared with temsirolimus alone [5, 10]: 3.1 fold and 3.2 fold
Increase in mean Cmax with ketoconazole compared with temsirolimus alone [5, 10]: 2.2 fold
Decrease in mean apparent metabolic clearance (CL/fm) with ketoconazole [5, 11]: 3.2 fold
Intersubject variability, CV for Cmax and AUC [5]: < 33%
Cmax [5, 12]: 29 ng/mL
AUC [5, 13]: 3890 ng·h/mL
AUC(0-t) [5, 13]: 2410 ng·h/mL
Cmax [5, 14]: 13.3 ng/mL
AUC [5, 15]: 1200 ng·h/mL
AUC(0-t) [5, 15]: 918 ng·h/mL
Vd ([5]; intravenous, metabolite sirolimus, single 5 mg i.v. temsirolimus + ketoconazole 400 mg oral, mean (CV), read-out: Vss/fm): 227 L
Vd ([5]; intravenous, metabolite sirolimus, single 5 mg i.v. temsirolimus + ketoconazole 400 mg oral, mean (CV), read-out: Vz/fm): 220 L
half-life [5, 13]: 6780 min
Tmax [5, 16]: 180 min
Vd ([5]; iv, 5 mg, metabolite sirolimus, single 5 mg i.v. temsirolimus alone, mean (CV), read-out: Vss/fm): 494 L
Vd ([5]; iv, 5 mg, metabolite sirolimus, single 5 mg i.v. temsirolimus alone, mean (CV), read-out: Vz/fm): 480 L
half-life [5, 17]: 4500 min
Tmax [5, 18]: 198 min
Reduction in apparent clearance with ketoconazole ([5]; metabolite sirolimus, 5 mg i.v. temsirolimus + ketoconazole vs temsirolimus alone): 69%
Carryover from treatment period 1 to 2, contribution to mean total AUC ([5]; period 2, mean): 1.9%
Carryover from treatment period 1 to 2, contribution to total AUC, range ([5]; period 2, range): 1.1–3.7%
T1/2 [5, 19]: 112.8 (18.1%) h
T1/2 [5, 20]: 74.8 (10.8%) h
SMILES: CO[C@H]1C[C@@H]2CC[C@@H](C)[C@@](O)(O2)C(=O)C(=O)N2CCCC[C@H]2C(=O)O[C@H]([C@H](C)C[C@@H]2CC[C@@H](O)[C@H](OC)C2)CC(=O)[C@H](C)/C=C(\C)[C@@H](O)[C@@H](OC)C(=O)[C@H](C)C[C@H](C)/C=C/C=C/C=C/1C [Sirolimus]
Reduction of AUC by rifampin [3]: 56%
Stability in whole blood [4]: stable
Reduction in AUC with concomitant enzyme-inducing anticonvulsant agents [6]: 45%
Reduction in Cmax with concomitant enzyme-inducing anticonvulsant agents [6]: 67%
Cmax as % of temsirolimus Cmax values ([7]; after temsirolimus): 10–20%
Increase in blood levels with ketoconazole [8]: ~10 fold

SMILES: CO[C@H]1C[C@@H]2CC[C@@H](C)[C@@](O)(O2)C(=O)C(=O)N2CCCC[C@H]2C(=O)O[C@H]([C@H](C)C[C@@H]2CC[C@@H](OC(=O)C(C)(CO)CO)[C@H](OC)C2)CC(=O)[C@H](C)/C=C(\C)[C@@H](O)[C@@H](OC)C(=O)[C@H](C)C[C@H](C)/C=C/C=C/C=C/1C [Temsirolimus]
Effect of rifampin on AUC [3]: no effect
Stability in whole blood [4]: stable
Decrease in mean clearance with ketoconazole [5, 11]: approximately 10%
Effect of ketoconazole coadministration on Cmax or AUC ([5]; 400 mg oral ketoconazole with 5 mg i.v. temsirolimus, healthy subjects): no significant effect; also recorded: No substantial differences
Intersubject variability, CV for Cmax and AUC [5]: < 16%
Cmax [5, 12]: 263 ng/mL
AUC [5, 13]: 992 ng·h/mL
AUC(0-t) [5, 13]: 969 ng·h/mL
Cmax [5, 14]: 278 ng/mL
AUC [5, 15]: 886 ng·h/mL
AUC(0-t) [5, 15]: 873 ng·h/mL
clearance [5, 13]: 85.7 mL/min
half-life [5, 13]: 1420 min
Tmax ([5]; intravenous, single 5 mg i.v. temsirolimus + ketoconazole 400 mg oral, mean (CV), read-out: Tmax): 30 min
Vd ([5]; intravenous, single 5 mg i.v. temsirolimus + ketoconazole 400 mg oral, mean (CV), read-out: Vss): 92 L
Vd ([5]; intravenous, single 5 mg i.v. temsirolimus + ketoconazole 400 mg oral, mean (CV), read-out: Vz): 174 L
Tmax [5, 16]: 30 min
clearance [5, 17]: 95.3 mL/min
half-life [5, 17]: 1340 min
Tmax [5, 18]: 30 min
Vd ([5]; iv, 5 mg, single 5 mg i.v. temsirolimus alone, mean (CV), read-out: Vss): 87 L
Vd ([5]; iv, 5 mg, single 5 mg i.v. temsirolimus alone, mean (CV), read-out: Vz): 182 L
CL [5, 19]: 5.1 (13.8%) l h^−1
Vss [5, 19]: 91.5 (17.5%) l
CL [5, 20]: 5.7 (11.0%) l h^−1
Vss [5, 20]: 86.8 (14.6%) l
Least squares geometric mean ratio for AUC [5, 21]: 110%
Least squares geometric mean ratio for AUCT [5, 21]: 109%
Least squares geometric mean ratio for Cmax [5, 21]: 94%
90% CIs for the least squares geometric mean ratios of Cmax, AUCT, and AUC ([5]; with ketoconazole vs temsirolimus alone): 80–125%
Reduction in Cmax with concomitant enzyme-inducing anticonvulsant agents [6]: 36%
Mean area under the curve (AUC) [7, 22]: 1580 ng·h/mL
Mean maximum concentration (Cmax) in whole blood [7, 22]: 595 ng/mL
Tolerability ([9]; human, in vivo): well tolerated
Herpes simplex (skin and appendages) ([9]; temsirolimus 5 mg + ketoconazole 400 mg, n=14): 0 n (%)
Herpes simplex (skin and appendages) ([9]; temsirolimus 5 mg alone, n=17): 1 (5.9) n (%)
Deaths or serious adverse events ([9]; temsirolimus alone and with ketoconazole): No deaths or serious adverse events
